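Cells were grown in 96-well plates and exposed to each compound for 48 hours at five concentrations; endpoints were interpolated linearly between bracketing concentrations, or set to the highest concentration if not reached. GI50 = concentration required for 50% inhibition of growth. TGI marks complete inhibition of growth.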
What was measured:
Experiment in all cases: inhibition of tumour cell growth, NCI panel, 48 h
[1] = tested on: DMS 273 small cell lung
[2] = tested on: NCI-H226 lung
[3] = tested on: SF-539 CNS
[4] = tested on: MOLT-4 leukemia
[5] = tested on: DMS 114 small cell lung
[6] = tested on: NCI-H522 lung
[7] = tested on: SK-MEL-2 melanoma
[8] = tested on: K-562 leukemia
[9] = tested on: ACHN renal
[10] = tested on: CCRF-CEM leukemia
[11] = tested on: RPMI-8226 leukemia
[12] = tested on: HCT-116 colon
[13] = tested on: TK-10 renal
[14] = tested on: OVCAR-8 ovarian
[15] = tested on: NCI-H23 lung
[16] = tested on: HOP-62 NSCLC
[17] = tested on: HCT-15 colon
[18] = tested on: U251 CNS
[19] = tested on: SK-MEL-28 melanoma
[20] = tested on: SNB-19 CNS
[21] = tested on: M14 melanoma
[22] = tested on: OVCAR-4 ovarian
[23] = tested on: DLD-1 colon
[24] = tested on: OVCAR-5 ovarian
[25] = tested on: LOX IMVI melanoma
[26] = tested on: HCC-2998 colon
[27] = tested on: COLO 205 colon
[28] = tested on: NCI-H460 lung
[29] = tested on: LXFL 529 NSCLC
[30] = tested on: SN12C renal
[31] = tested on: SNB-78 CNS
[32] = tested on: KM12 colon
[33] = tested on: EKVX NSCLC
[34] = tested on: M19-MEL melanoma
[35] = tested on: A549 NSCLC
[36] = tested on: UO-31 renal
[37] = tested on: SNB-75 CNS
[38] = tested on: XF 498 CNS
[39] = tested on: SK-OV-3 ovarian
[40] = tested on: HL-60(TB) leukemia
[41] = tested on: UACC-62 melanoma
[42] = tested on: HT29 colon
[43] = tested on: UACC-257 melanoma
[44] = tested on: CAKI-1 renal
[45] = tested on: KM20L2 colon
[46] = tested on: SF-295 CNS
[47] = tested on: SW-620 colon
[48] = tested on: MALME-3M melanoma
[49] = tested on: RXF 393 renal
[50] = tested on: HOP-92 NSCLC
[51] = tested on: IGROV1 ovarian
[52] = tested on: 786-0 renal
[53] = tested on: SK-MEL-5 melanoma
[54] = tested on: SR leukemia
[55] = tested on: A498 renal
[56] = tested on: OVCAR-3 ovarian
[57] = tested on: SF-268 CNS
[58] = tested on: HOP-18 NSCLC

For `C=CC1(CC)/C(=N\O)C(CC)(CC)C(=O)N1O` (configuration not stated), the TGI [1] was > 100 µM, the TGI [2] was > 100 µM and the TGI [3] was > 100 µM. The TGI [4] was > 100 µM, the TGI [5] was > 100 µM and the TGI [6] was > 100 µM. The TGI [7] was > 100 µM, the TGI [8] was > 100 µM and the TGI [9] was > 100 µM. For the same compound, the TGI [10] was > 100 µM, the TGI [11] was > 100 µM and the TGI [12] was > 100 µM. For the same compound, the TGI [13] was > 100 µM, the TGI [14] was > 100 µM and the TGI [15] was > 100 µM. For the same compound, the TGI [16] was > 100 µM, the TGI [17] was > 100 µM and the TGI [18] was > 100 µM. The TGI [19] was > 100 µM, the TGI [20] was > 100 µM and the TGI [21] was > 100 µM. The TGI [22] was > 100 µM, the TGI [23] was > 100 µM and the TGI [24] was > 100 µM. The TGI [25] was > 100 µM, the TGI [26] was > 100 µM and the TGI [27] was > 100 µM. The TGI [28] was > 100 µM, the TGI [29] was > 100 µM and the TGI [30] was > 100 µM. For the same compound, the TGI [31] was > 100 µM, the TGI [32] was > 100 µM and the TGI [33] was > 100 µM. For the same compound, the TGI [34] was > 100 µM, the TGI [35] was > 100 µM and the TGI [36] was > 100 µM. For the same compound, the TGI [37] was > 100 µM, the TGI [38] was > 100 µM and the TGI [39] was > 100 µM. The TGI [40] was > 100 µM, the TGI [41] was > 100 µM and the TGI [42] was > 100 µM. For the same compound, the TGI [43] was > 100 µM, the TGI [44] was > 100 µM and the TGI [45] was > 100 µM. For the same compound, the TGI [46] was > 100 µM, the TGI [47] was > 100 µM and the TGI [48] was > 100 µM. The TGI [49] was > 100 µM, the TGI [50] was > 100 µM and the TGI [51] was > 100 µM. For the same compound, the TGI [52] was > 100 µM, the TGI [53] was > 100 µM and the TGI [54] was > 100 µM. For the same compound, the TGI [55] was > 100 µM and the TGI [56] was > 100 µM.
`NCCN.NCCN.[Cl-].[O]=[Os+2]=[O]` was tested, and the GI50 [2] was > 100 µM, the TGI [2] was > 100 µM and the GI50 [3] was > 100 µM. For the same compound, the TGI [3] was > 100 µM, the GI50 [5] was > 100 µM and the TGI [5] was > 100 µM. For the same compound, the GI50 [6] was > 100 µM, the TGI [6] was > 100 µM and the GI50 [7] was > 100 µM. The TGI [7] was > 100 µM, the GI50 [11] was > 100 µM and the TGI [11] was > 100 µM. The GI50 [12] was > 100 µM, the TGI [12] was > 100 µM and the GI50 [13] was > 100 µM. For the same compound, the TGI [13] was > 100 µM, the GI50 [14] was > 100 µM and the TGI [14] was > 100 µM. The GI50 [15] was > 100 µM, the TGI [15] was > 100 µM and the GI50 [17] was > 100 µM. For the same compound, the TGI [17] was > 100 µM, the GI50 [18] was > 100 µM and the TGI [18] was > 100 µM. For the same compound, the GI50 [19] was > 100 µM, the TGI [19] was > 100 µM and the GI50 [20] was > 100 µM. For the same compound, the TGI [20] was > 100 µM, the GI50 [21] was > 100 µM and the TGI [21] was > 100 µM. The GI50 [22] was > 100 µM, the TGI [22] was > 100 µM and the GI50 [23] was > 100 µM. The TGI [23] was > 100 µM, the GI50 [24] was > 100 µM and the TGI [24] was > 100 µM. The GI50 [26] was > 100 µM, the TGI [26] was > 100 µM and the GI50 [27] was > 100 µM. For the same compound, the TGI [27] was > 100 µM, the GI50 [28] was > 100 µM and the TGI [28] was > 100 µM. The GI50 [29] was > 100 µM, the TGI [29] was > 100 µM and the GI50 [30] was > 100 µM. For the same compound, the TGI [30] was > 100 µM, the GI50 [31] was > 100 µM and the TGI [31] was > 100 µM. For the same compound, the GI50 [33] was > 100 µM, the TGI [33] was > 100 µM and the GI50 [34] was 12 µM. For the same compound, the TGI [34] was 28.8 µM, the GI50 [35] was > 100 µM and the TGI [35] was > 100 µM. The GI50 [36] was > 100 µM, the TGI [36] was > 100 µM and the GI50 [37] was 71 µM. The TGI [37] was > 100 µM, the GI50 [41] was > 100 µM and the TGI [41] was > 100 µM. The GI50 [44] was > 100 µM, the TGI [44] was > 100 µM and the GI50 [45] was > 100 µM. The TGI [45] was > 100 µM, the GI50 [46] was > 100 µM and the TGI [46] was > 100 µM. The GI50 [47] was > 100 µM, the TGI [47] was > 100 µM and the GI50 [48] was > 100 µM. For the same compound, the TGI [48] was > 100 µM, the GI50 [49] was > 100 µM and the TGI [49] was > 100 µM. For the same compound, the GI50 [57] was > 100 µM, the TGI [57] was > 100 µM and the GI50 [51] was > 100 µM. For the same compound, the TGI [51] was > 100 µM, the GI50 [58] was > 100 µM and the TGI [58] was > 100 µM. For the same compound, the GI50 [52] was > 100 µM, the TGI [52] was > 100 µM and the GI50 [54] was 67.4 µM. For the same compound, the TGI [54] was > 100 µM, the GI50 [56] was > 100 µM and the TGI [56] was > 100 µM.
In the case of `O=C1CN2C(Cl)(Cl)C2(c2ccccc2)c2cc(Cl)ccc2N1CC1CC1` (configuration not stated), the TGI [1] was 63.2 µM, the TGI [2] was 41.6 µM and the TGI [4] was 54.8 µM. For the same compound, the TGI [5] was 85.8 µM, the TGI [6] was 38.2 µM and the TGI [7] was 33.4 µM. For the same compound, the TGI [8] was 65.8 µM, the TGI [9] was 65.8 µM and the TGI [10] was 61.4 µM. The TGI [11] was 81.8 µM, the TGI [12] was 35.8 µM and the TGI [13] was > 100 µM. It also gave a TGI [14] of 29.8 µM, a TGI [15] of 51.7 µM and a TGI [16] of 50.3 µM. For the same compound, the TGI [17] was 48.9 µM, the TGI [18] was 34.7 µM and the TGI [19] was 32.9 µM. For the same compound, the TGI [21] was 36.6 µM, the TGI [22] was > 100 µM and the TGI [23] was 44.2 µM. For the same compound, the TGI [24] was > 100 µM, the TGI [25] was 31.6 µM and the TGI [26] was 33.4 µM. The TGI [27] was 38.8 µM, the TGI [28] was 32 µM and the TGI [29] was > 100 µM. The TGI [30] was 35.5 µM, the TGI [32] was 30.2 µM and the TGI [33] was 89.1 µM. The TGI [34] was 93.8 µM, the TGI [36] was 66.6 µM and the TGI [37] was 94.8 µM. For the same compound, the TGI [42] was 44.9 µM, the TGI [43] was 40.9 µM and the TGI [44] was > 100 µM. For the same compound, the TGI [45] was 88.5 µM, the TGI [46] was 47.1 µM and the TGI [47] was > 100 µM. The TGI [48] was 32 µM, the TGI [49] was 35.9 µM and the TGI [57] was 86.1 µM. For the same compound, the TGI [50] was 26.2 µM, the TGI [58] was 81.2 µM and the TGI [53] was 35.7 µM. It also gave a TGI [54] of 68.6 µM and a TGI [56] of 33.8 µM.
